Reference: patent US10406122B2 (priority 2011, dated 2019)
Values joined by “and” are separate entries in the source; they are usually repeats but may differ in a detail not shown here. Equal entries are not always repeated. Structures can show the parent of a compound that is named as a salt.

System: patients undergoing TKA or THA
Assay: Example 2: open label study of Tramadol IV in Total knee Arthroplasty or Total Hip Arthroplasty
Conditions: for PAIN Intensity Difference, Mean score (SD): 100 mg IV; for Time to first demand of rescue medication after the first dose of Tramadol, Mean: hydrochloride

COc1cccc([C@]2(O)CCCC[C@H]2CN(C)C)c1 (racemic) [Tramadol, (±)cis-2-[(dimethylamino)methyl]-1-(3-methoxyphenyl) cyclohexanol hydrochloride]
major adverse events (100 mg IV every 6 hours, 48 hours): nausea and vomiting, followed by pruritus | tolerability (100 mg QID, patients with both high and low BMI): well tolerated | Morphine usage, Mean (1st dose Tramadol at wound closure, First 24 hours): 10.57 mg | Morphine usage, Mean (1st dose Tramadol at wound closure, In 48 hours): 12.98 mg | Morphine usage, Mean (1st dose Tramadol at wound closure, Loading dose): 4.05 mg | Morphine usage, Mean (1st dose Tramadol at wound closure, Second 24 hours): 3.79 mg | Morphine usage, Mean (1st dose Tramadol on demand, First 24 hours): 11.03 mg | Morphine usage, Mean (1st dose Tramadol on demand, In 48 hours): 12.92 mg | Morphine usage, Mean (1st dose Tramadol on demand, Loading dose): 3.69 mg | Morphine usage, Mean (1st dose Tramadol on demand, Second 24 hours): 4 mg | PAIN Intensity Difference, Mean score (SD) (1st dose at wound closure, 0.5 hours post first dose): 0 (0.09) | PAIN Intensity Difference, Mean score (SD) (1st dose at wound closure, 1 hour post first dose): −0.3 (1.6) | PAIN Intensity Difference, Mean score (SD) (1st dose at wound closure, 2 hours post first dose): −1.2 (1.8) | PAIN Intensity Difference, Mean score (SD) (1st dose at wound closure, 3 hours post first dose): −2.2 (1.9) | PAIN Intensity Difference, Mean score (SD) (1st dose at wound closure, 4 hours post first dose): −2.6 (2.0) | PAIN Intensity Difference, Mean score (SD) (1st dose at wound closure, 6 hours post first dose): −3.2 (2.1) | PAIN Intensity Difference, Mean score (SD) (1st dose at wound closure, 9 hours post first dose): −2.7 (2.2) | PAIN Intensity Difference, Mean score (SD) (1st dose at wound closure, 12 hours post first dose): −2.2 (2.0) | PAIN Intensity Difference, Mean score (SD) (1st dose at wound closure, 18 hours post first dose): −2.2 (2.1) | PAIN Intensity Difference, Mean score (SD) (1st dose at wound closure, 24 hours post first dose): −1.9 (1.5) | PAIN Intensity Difference, Mean score (SD) (1st dose at wound closure, 30 hours post first dose): −1.6 (1.4) | PAIN Intensity Difference, Mean score (SD) (1st dose at wound closure, 36 hours post first dose): −1.3 (1.4) | PAIN Intensity Difference, Mean score (SD) (1st dose at wound closure, 42 hours post first dose): −1.7 (1.8) | PAIN Intensity Difference, Mean score (SD) (1st dose at wound closure, 48 hours post first dose): −1.4 (1.5) | PAIN Intensity Difference, Mean score (SD) (1st dose on demand, 0.5 hours post first dose): −0.1 (2.4) | PAIN Intensity Difference, Mean score (SD) (1st dose on demand, 1 hour post first dose): −0.5 (2.8) | PAIN Intensity Difference, Mean score (SD) (1st dose on demand, 2 hours post first dose): 0.2 (2.1) | PAIN Intensity Difference, Mean score (SD) (1st dose on demand, 3 hours post first dose): 0.3 (2.3) | PAIN Intensity Difference, Mean score (SD) (1st dose on demand, 4 hours post first dose): 0.3 (2.6) | PAIN Intensity Difference, Mean score (SD) (1st dose on demand, 6 hours post first dose): 0.1 (2.8) | PAIN Intensity Difference, Mean score (SD) (1st dose on demand, 9 hours post first dose): 0.8 (2.9) | PAIN Intensity Difference, Mean score (SD) (1st dose on demand, 12 hours post first dose): 1.4 (2.0) | PAIN Intensity Difference, Mean score (SD) (1st dose on demand, 18 hours post first dose): 1.2 (2.2) | PAIN Intensity Difference, Mean score (SD) (1st dose on demand, 24 hours post first dose): 1.6 (1.8) | PAIN Intensity Difference, Mean score (SD) (1st dose on demand, 30 hours post first dose): 1.9 (2.4) | PAIN Intensity Difference, Mean score (SD) (1st dose on demand, 36 hours post first dose): 1.9 (2.1) | PAIN Intensity Difference, Mean score (SD) (1st dose on demand, 42 hours post first dose): 2.1 (2.1) | PAIN Intensity Difference, Mean score (SD) (1st dose on demand, 48 hours post first dose): 2.4 (2.3) | Time to first demand of rescue medication after the first dose of Tramadol, Mean (Tramadol at wound Closure group): 2.5 (+/−3) hours and 2.52 hours | Time to first demand of rescue medication after the first dose of Tramadol, Mean (Tramadol on demand group): 2.11 h | Time to first demand of rescue medication after the first dose of Tramadol, Mean (Tramadol on demand group, listed as tramadol): 2.1 (+/−5.4) hours | total amount of morphine used (both groups): approximately 15 mg | rescue morphine used (first 24 hours, both groups): about 11 mg | rescue morphine used (the next day, both groups): 4 mg
